# From US8846951B2 (AbbVie Inc., priority 2009, dated 2014)
# Like-named read-outs stand apart in the source and are kept apart here.
# Columns and labels:
# 5HT2B receptors = target: T1, 5HT2B receptors (Homo sapiens, UniProt P41595); assay: Human 5-HT2B functional high throughput screening assay in CHO-K1 cells (calcium flux); assay type: cell-based; details: for EC50: CHO-K1 cells, calcium flux
# T1 construct: expressed in transfected cells; host or cells: CHO-K1 cells
# Procedure: (§1) (iii) Human 5-HT2C and 5-HT2B Functional High Throughput Screening Assays in CHO-K1 Cells
# (§2) CHO-K1 cells over-expressing 5HT2C or 5HT2B receptors were grown in 1272 cm^2 flasks to 70-80% confluency in UltraCHO media (Lonza, Walkersville, Md.) supplemented with 1% dialyzed fetal bovine serum (FBS), 250 μg/mL zeocin, 100 U/mL penicillin and 100 μg/mL streptomycin, and 400 μg/mL geneticin. The cells were dissociated from the flasks using 0.05% trypsin, resuspended in Recovery™ cell culture freezing medium (Invitrogen, Carlsbad, Calif.) and stored in liquid nitrogen until use. The calcium flux experiments were done using frozen cells. The cells were diluted in media containing 1% dialyzed FBS and 100 U/mL penicillin and 100 μg/mL streptomycin and plated into 384-well poly-D-Lysine coated plates (15,000 cells/well). Then the plates were incubated overnight in a cell incubator at 37° C., 5% CO2. On the next day, the growth media was replaced with media without FBS and further incubated overnight. On day three, the changes in intracellular Ca^2+ were determined using calcium sensitive fluorescent dye, Ca4 (MDS Analytical Technologies, Sunnyvale, Calif.) by loading 15 μL of diluted dye in Hank's Balanced Salt Solution and 20 mM Hepes buffer (pH 7.4) with final concentration of 2.5 mM probenecid into the cells containing media. Then the cells were incubated at room temperature for 60 minutes in dark.
# (§3) After incubation, the cell plates were transferred to FLIPR™ (MDS) and their fluorescence measurements were read at an excitation wavelength of 480 nm and an emission wavelength of 530 nm at 25° C. The baseline fluorescence was measured for the first 10 seconds and then 15 μL of 4× concentration of serotonin/test compound was added to the cells. The fluorescence intensity was captured every second for the first 1 minute followed by every 5 seconds for an additional 2 minutes. The increase in fluorescent response by a test compound was normalized to the response of serotonin and used to determine agonist activity. The concentration response of compounds was done from a starting concentration of 10 μM, 1:10 dilution across 6 wells with a final dimethyl sulfoxide concentration of 0.2% and was fitted using a 4-parameter logistic equation. The concentration at which a compound exerts half its maximal effect was named as ‘effective concentration 50’ or ‘EC50’. Emax is the maximum functional response or efficacy expressed as a percentage relative to the effect of serotonin.
# 5HT2C receptors = target: T2, 5HT2C receptors (Homo sapiens, UniProt P28335); assay: Human 5-HT2C functional high throughput screening assay in CHO-K1 cells (calcium flux); assay type: cell-based; set-up: expressed in transfected cells; host or cells: CHO-K1 cells; details: for Emax: CHO-K1, 5-HT2C, maximum functional response as percentage relative to the effect of serotonin; for EC50: CHO-K1 cells, calcium flux
# T2 sequence (P28335 33-458): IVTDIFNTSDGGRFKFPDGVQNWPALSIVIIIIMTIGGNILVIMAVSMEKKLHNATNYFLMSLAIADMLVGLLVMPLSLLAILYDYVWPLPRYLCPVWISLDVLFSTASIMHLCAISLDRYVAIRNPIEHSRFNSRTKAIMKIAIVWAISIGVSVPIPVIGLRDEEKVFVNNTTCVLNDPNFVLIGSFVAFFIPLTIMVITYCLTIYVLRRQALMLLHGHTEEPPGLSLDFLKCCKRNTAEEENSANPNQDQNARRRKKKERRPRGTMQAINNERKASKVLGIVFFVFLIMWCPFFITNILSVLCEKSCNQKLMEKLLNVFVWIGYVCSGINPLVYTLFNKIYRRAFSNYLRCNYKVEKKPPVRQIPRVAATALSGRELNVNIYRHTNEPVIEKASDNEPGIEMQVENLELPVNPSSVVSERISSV
# Procedure: as §1, §2, §3
# [1] = 5-HT2B agonist activity, read-out: EC50
# [2] = 5-HT2C agonist activity, read-out: EC50
# [3] = 5-HT2B, maximum functional response as percentage relative to the effect of serotonin
# [4] = CHO-K1, 5-HT2B, maximum functional response as percentage relative to the effect of serotonin, read-out: Emax
# T1 sequence (P41595 whole entry): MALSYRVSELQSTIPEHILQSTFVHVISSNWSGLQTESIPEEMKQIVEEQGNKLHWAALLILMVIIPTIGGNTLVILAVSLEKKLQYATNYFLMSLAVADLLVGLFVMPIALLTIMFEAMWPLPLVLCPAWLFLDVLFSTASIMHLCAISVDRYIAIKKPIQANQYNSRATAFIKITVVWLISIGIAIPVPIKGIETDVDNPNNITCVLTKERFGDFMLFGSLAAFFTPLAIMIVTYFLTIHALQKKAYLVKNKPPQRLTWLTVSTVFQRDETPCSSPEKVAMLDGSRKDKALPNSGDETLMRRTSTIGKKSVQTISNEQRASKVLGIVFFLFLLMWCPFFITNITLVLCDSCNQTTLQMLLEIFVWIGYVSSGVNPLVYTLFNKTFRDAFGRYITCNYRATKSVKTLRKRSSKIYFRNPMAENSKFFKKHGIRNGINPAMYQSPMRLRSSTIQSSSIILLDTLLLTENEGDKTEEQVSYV
Compound,Emax (5HT2B receptors; CHO-K1) [%],"EC50 (5HT2B receptors; EC50, 5-HT2B agonist activity) [nM]",Emax (5HT2C receptors) [%],"EC50 (5HT2C receptors; EC50, 5-HT2C agonist activity) [nM]",EC50 (5HT2B receptors; [1]) [nM],EC50 (5HT2C receptors; [2]) [nM],Emax (5HT2B receptors; [3]),Emax (5HT2B receptors; [4]) [%],Emax (5HT2C receptors; read-out: Emax) [%]
"Clc1cc(Br)c2c(c1)[C@H]1CNC[C@@H]1CCO2 (relative stereo) [Example 394, Trans-7-bromo-9-chloro-2,3,3a,4,5,10b-hexahydro-1H-[1]benzoxepino[4,5-c]pyrrole]",45,100,90,20,–,–,–,–,–
"O=S(=O)(c1cccc(Cl)c1)N1Cc2cccnc2[C@@H]2CNC[C@H]2C1 (relative stereo) [Example 359, Trans-6-[(3-chlorophenyl)sulfonyl]-5,6,7,7a,8,9,10,10a-octahydropyrido[3,2-c]pyrrolo[3,4-e]azepine]",30,500,80,100,–,–,–,–,–
"FC(F)(F)Oc1ccc2c(c1)[C@H]1CNC[C@@H]1CCO2 (relative stereo) [Example 282, Trans-9-(trifluoromethoxy)-2,3,3a,4,5,10b-hexahydro-1H-[1]benzoxepino[4,5-c]pyrrole]",30,–,70,–,200,900,–,–,–
"CN1C[C@@H]2CNC(=O)c3cc(OCc4ccccc4)ccc3[C@H]2C1 [Example 274, (3aS,10bS)-8-(Benzyloxy)-2-methyl-1,2,3,3a,4,5-hexahydrobenzo[e]pyrrolo[3,4-c]azepin-6(10bH)-one]",–,> 10000,> 120,3,–,–,inactive,–,–
"O=C1NC[C@@H]2CNC[C@H]2c2cc3ccccc3cc21 (relative stereo) [Example 257, Trans-1,2,3,3a,4,5-hexahydronaphtho[2,3-e]pyrrolo[3,4-e]azepin-6(12bH)-one]",–,–,–,–,60,20,–,40,120
"c1ccc(-c2ccc3c(c2)OCC[C@H]2CNC[C@H]32)cc1 (relative stereo) [Example 108, Trans-8-phenyl-2,3,3a,4,5,10b-hexahydro-1H-[1]benzoxepino[4,5-c]pyrrole]",–,–,–,–,> 10000,200,inactive,–,110
"CN1C[C@H]2CNC(=O)c3cc(-c4ccccc4F)ccc3[C@@H]2C1 (relative stereo) [Example 77, Trans-8-(2-fluorophenyl)-2-methyl-1,2,3,3a,4,5-hexahydrobenzo[e]pyrrolo[3,4-c]azepin-6(10bH)-one]",–,–,–,–,> 10000,5.8,inactive,–,> 120
"O=C1NC[C@@H]2CN(Cc3ccccc3)C[C@H]2c2cnccc21 (relative stereo) [Example 152, Trans-2-benzyl-1,2,3,3a,4,5-hexahydropyrido[3,4-e]pyrrolo[3,4-c]azepin-6(10bH)-one]",–,–,50,–,> 10000,2000,inactive,–,–
"Clc1ccc2c(c1)[C@@H]1CNC[C@H]1CCN2 (relative stereo) [Example 391, Trans-9-chloro-1,2,3,3a,4,5,6,10b-octahydropyrrolo[3,4-d][1]benzazepine]",70,20,90,90,–,–,–,–,–
"CN1C[C@H]2CNC(=O)c3cc(-c4ccc(F)c(F)c4)ccc3[C@@H]2C1 (relative stereo) [Example 78, Trans-8-(3,4-difluorophenyl)-2-methyl-1,2,3,3a,4,5-hexahydrobenzo[e]pyrrolo[3,4-c]azepin-6(10bH)-one]",–,–,–,–,> 10000,6.6,inactive,–,> 120
"CNC(=O)c1cccc(-c2ccc3c(c2)C(=O)NC[C@@H]2CNC[C@@H]32)c1 (relative stereo) [Example 381, N-Methyl-3-[trans-6-oxo-1,2,3,3a,4,5,6,10b-octahydropyrrolo[3,4-d][2]benzazepin-8-yl]benzamide]",–,–,–,–,> 10000,10,inactive,–,105
"Clc1cccc2c1OCC[C@H]1CNC[C@H]21 (relative stereo) [Example 376, Trans-7-chloro-2,3,3a,4,5,10b-hexahydro-1H-[1]benzoxepino[4,5-c]pyrrole]",70,200,90,0.2,–,–,–,–,–
"Fc1ccc2c(c1)[C@@H]1CNC[C@@H]1CCO2 (relative stereo) [Example 284, Cis-9-fluoro-2,3,3a,4,5,10b-hexahydro-1H-[1]benzoxepino[4,5-c]pyrrole]",55,10,85,400,–,–,–,–,–
"Cc1c(Cl)cccc1S(=O)(=O)N1Cc2cccnc2[C@@H]2CNC[C@H]2C1 (relative stereo) [Example 342, Trans-6-[(3-chloro-2-methylphenyl)sulfonyl]-5,6,7,7a,8,9,10,10a-octahydropyrido[3,2-c]pyrrolo[3,4-e]azepine]",–,–,–,–,300,60,–,40,90
"C=C(c1ccc2c(c1)C(=O)NC[C@@H]1CN(C)C[C@@H]21)C(F)(F)F (relative stereo) [Example 202, Trans-2-methyl-8-(3,3,3-trifluoroprop-1-en-2-yl)-1,2,3,3a,4,5-hexahydrobenzo[e]pyrrolo[3,4-c]azepin-6(10bH)-one]",–,–,80,–,> 10000,400,inactive,–,–
"O=C1NC[C@@H]2CNC[C@H]2c2ccc(-c3ccsc3)cc21 (relative stereo) [Example 184, Trans-8-(thiophen-3-yl)-1,2,3,3a,4,5-hexahydrobenzo[e]pyrrolo[3,4-c]azepin-6(10bH)-one]",–,–,–,–,> 10000,0.3,inactive,–,> 120
"COc1ccc(C(C)C)cc1-c1ccc2c(c1)C(=O)NC[C@@H]1CN(C)C[C@@H]21 (relative stereo) [Example 301, Trans-8-(5-isopropyl-2-methoxyphenyl)-2-methyl-2,3,3a,4,5,10b-hexahydropyrrolo[3,4-d][2]benzazepin-6(1H)-one]",–,–,–,–,> 10000,30,inactive,–,105
"O=S(=O)(c1ccc(OC(F)F)cc1)N1Cc2cccnc2[C@@H]2CNC[C@H]2C1 (relative stereo) [Example 335, Trans-6-{[4-(difluoromethoxy)phenyl]sulfonyl}-5,6,7,7a,8,9,10,10a-octahydropyrido[3,2-e]pyrrolo[3,4-e]azepine]",–,–,–,–,900,20,–,25,85
"COc1ccc(S(=O)(=O)N2Cc3cccnc3[C@@H]3CNC[C@H]3C2)cc1 (relative stereo) [Example 346, Trans-6-[(4-methoxyphenyl)sulfonyl]-5,6,7,7a,8,9,10,10a-octahydropyrido[3,2-c]pyrrolo[3,4-e]azepine]",–,–,–,–,> 10000,100,inactive,–,85
"Cc1ccc(-c2ccc3c(c2)C(=O)NC[C@@H]2CN(C)C[C@@H]32)o1 (relative stereo) [Example 203, Trans-2-methyl-8-(5-methylfuran-2-yl)-1,2,3,3a,4,5-hexahydrobenzo[e]pyrrolo[3,4-c]azepin-6(10bH)-one]",–,–,–,–,> 10000,6,inactive,–,> 120
